Laboratory results reported in ChEMBL document CHEMBL4376804, “Review of Transient Receptor Potential Canonical (TRPC5) Channel Modulators and Diseases” (J Med Chem, 2019).

Legend:
[1] = target: T1, Short transient receptor potential channel 3 (Homo sapiens, UniProt Q13507); assay: Inhibition of human TRPC3 expressed in CHO cells assessed as reduction in OAG-induced calcium influx after 10 mins by fluo-4/AM dye based FLIPR assay; assay type: cell-based
T1 sequence (Q13507 whole entry): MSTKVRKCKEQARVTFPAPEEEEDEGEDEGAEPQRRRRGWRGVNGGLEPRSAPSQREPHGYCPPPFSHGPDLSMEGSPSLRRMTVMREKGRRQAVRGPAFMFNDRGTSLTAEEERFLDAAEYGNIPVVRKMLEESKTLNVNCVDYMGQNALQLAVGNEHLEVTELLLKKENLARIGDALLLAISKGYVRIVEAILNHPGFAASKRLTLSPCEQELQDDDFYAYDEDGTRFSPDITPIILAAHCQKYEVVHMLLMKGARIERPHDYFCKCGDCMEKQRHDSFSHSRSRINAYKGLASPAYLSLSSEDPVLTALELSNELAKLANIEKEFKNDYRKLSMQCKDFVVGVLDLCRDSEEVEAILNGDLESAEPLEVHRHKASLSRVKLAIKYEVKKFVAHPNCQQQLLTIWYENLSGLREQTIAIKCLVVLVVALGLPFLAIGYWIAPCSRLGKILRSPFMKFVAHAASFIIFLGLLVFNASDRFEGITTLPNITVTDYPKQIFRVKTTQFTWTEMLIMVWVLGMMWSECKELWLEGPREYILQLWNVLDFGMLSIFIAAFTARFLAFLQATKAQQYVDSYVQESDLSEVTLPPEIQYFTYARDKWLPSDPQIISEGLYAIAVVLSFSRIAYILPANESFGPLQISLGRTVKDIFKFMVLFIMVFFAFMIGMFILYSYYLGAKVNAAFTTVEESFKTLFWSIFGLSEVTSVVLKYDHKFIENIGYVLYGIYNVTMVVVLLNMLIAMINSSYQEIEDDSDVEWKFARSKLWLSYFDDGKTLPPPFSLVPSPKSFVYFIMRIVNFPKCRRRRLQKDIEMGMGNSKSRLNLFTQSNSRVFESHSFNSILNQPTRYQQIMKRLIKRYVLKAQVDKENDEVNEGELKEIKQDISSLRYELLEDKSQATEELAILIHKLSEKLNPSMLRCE

[2] = target: T2, Short transient receptor potential channel 4 (Mus musculus, UniProt Q9QUQ5); assay: Inhibition of mouse TRPC4 by FLIPR assay
T2 sequence (Q9QUQ5 whole entry): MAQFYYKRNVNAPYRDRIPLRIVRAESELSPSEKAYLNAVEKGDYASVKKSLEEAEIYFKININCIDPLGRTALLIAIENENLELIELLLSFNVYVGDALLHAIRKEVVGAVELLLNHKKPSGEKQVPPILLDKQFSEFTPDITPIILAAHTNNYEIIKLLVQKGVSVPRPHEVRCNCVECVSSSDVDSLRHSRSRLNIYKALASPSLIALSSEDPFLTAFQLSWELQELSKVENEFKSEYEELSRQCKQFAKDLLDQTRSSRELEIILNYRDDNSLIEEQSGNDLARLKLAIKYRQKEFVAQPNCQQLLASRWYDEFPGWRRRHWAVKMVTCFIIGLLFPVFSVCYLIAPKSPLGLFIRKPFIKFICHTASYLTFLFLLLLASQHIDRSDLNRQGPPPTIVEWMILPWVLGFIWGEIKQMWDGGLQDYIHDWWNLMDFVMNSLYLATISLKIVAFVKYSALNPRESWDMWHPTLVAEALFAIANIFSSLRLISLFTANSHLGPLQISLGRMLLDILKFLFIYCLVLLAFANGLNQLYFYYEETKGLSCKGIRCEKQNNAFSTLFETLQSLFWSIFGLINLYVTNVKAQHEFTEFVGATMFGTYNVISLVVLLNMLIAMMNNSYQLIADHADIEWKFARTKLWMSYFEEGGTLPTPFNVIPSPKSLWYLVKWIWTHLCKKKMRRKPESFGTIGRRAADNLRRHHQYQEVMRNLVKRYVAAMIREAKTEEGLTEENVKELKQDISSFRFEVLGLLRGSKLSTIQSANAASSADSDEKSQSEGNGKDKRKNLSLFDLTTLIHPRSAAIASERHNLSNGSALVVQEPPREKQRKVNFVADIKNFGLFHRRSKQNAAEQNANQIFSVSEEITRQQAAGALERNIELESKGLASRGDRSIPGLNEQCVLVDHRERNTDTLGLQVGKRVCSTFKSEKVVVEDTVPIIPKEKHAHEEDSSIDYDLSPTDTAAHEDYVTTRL

[3] = target: T2, Short transient receptor potential channel 4; assay: Inhibition of YFP-tagged mouse TRPC4 beta expressed in thapsigargin treated HEK293 cells co-expressing M3 receptor assessed as reduction in carbachol-induced calcium level by fluo-4 dye based fluorescence assay; assay type: cell-based
[4] = target: T3, Short transient receptor potential channel 6 (Homo sapiens, UniProt Q9Y210); assay: Inhibition of YFP-tagged human TRPC6 expressed in thapsigargin treated HEK293 cells assessed as reduction in amix-induced calcium level by fluo-4 dye based fluorescence assay; assay type: cell-based
T3 sequence (Q9Y210 whole entry): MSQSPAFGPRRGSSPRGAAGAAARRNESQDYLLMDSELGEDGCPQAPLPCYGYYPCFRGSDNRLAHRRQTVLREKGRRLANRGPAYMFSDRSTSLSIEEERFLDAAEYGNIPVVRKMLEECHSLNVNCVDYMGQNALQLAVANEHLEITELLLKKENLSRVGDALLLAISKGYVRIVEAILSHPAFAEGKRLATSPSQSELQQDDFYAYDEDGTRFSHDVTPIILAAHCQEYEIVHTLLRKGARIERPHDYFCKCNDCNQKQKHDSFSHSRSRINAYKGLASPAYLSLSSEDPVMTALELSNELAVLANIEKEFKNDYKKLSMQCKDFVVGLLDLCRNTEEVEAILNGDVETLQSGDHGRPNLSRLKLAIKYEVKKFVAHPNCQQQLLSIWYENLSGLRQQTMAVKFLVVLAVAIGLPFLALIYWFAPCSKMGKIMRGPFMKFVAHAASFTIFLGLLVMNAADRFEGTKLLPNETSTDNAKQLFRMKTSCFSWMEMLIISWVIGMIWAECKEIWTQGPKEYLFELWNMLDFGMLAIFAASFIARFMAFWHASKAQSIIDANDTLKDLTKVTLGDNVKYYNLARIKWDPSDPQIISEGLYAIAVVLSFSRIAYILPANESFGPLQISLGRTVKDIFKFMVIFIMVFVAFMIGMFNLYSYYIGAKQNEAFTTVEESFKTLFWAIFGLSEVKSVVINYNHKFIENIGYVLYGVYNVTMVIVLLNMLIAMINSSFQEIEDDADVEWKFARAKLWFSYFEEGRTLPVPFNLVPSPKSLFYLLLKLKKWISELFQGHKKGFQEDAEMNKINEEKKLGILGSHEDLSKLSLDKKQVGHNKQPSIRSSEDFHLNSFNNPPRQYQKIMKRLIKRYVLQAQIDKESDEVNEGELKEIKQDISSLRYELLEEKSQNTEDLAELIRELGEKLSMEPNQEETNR

[5] = target: Transient receptor potential cation channel subfamily V member 1 (Rattus norvegicus, UniProt O35433); assay: Inhibition of CFP-tagged rat TRPV1 expressed in HEK293 cells assessed as reduction in calcium level by fluo-4 dye based fluorescence assay; assay type: cell-based
Sequence of Transient receptor potential cation channel subfamily V member 1 (O35433 whole entry): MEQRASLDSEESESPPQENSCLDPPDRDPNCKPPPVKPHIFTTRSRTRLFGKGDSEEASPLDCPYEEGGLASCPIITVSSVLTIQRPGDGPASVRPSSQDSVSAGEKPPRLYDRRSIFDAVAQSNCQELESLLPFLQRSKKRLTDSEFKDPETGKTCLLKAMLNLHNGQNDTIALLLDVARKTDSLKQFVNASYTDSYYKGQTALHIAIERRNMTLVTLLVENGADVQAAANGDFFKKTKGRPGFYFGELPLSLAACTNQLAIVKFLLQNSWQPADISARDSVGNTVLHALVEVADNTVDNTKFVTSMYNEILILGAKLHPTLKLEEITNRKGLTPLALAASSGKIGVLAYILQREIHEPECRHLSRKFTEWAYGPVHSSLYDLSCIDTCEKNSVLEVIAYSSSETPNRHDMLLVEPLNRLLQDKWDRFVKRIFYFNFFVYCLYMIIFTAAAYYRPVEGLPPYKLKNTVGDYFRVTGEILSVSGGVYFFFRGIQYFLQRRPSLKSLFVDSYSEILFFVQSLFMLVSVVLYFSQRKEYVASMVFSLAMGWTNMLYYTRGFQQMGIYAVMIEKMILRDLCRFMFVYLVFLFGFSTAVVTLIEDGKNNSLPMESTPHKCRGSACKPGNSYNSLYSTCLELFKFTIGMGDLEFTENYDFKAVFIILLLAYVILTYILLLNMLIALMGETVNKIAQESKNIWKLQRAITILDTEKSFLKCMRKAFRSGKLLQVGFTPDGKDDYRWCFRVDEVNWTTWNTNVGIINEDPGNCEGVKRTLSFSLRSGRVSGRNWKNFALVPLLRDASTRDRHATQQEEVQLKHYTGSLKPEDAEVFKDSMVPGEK

IC50 [1] [µM]	IC50 [2] [µM]	IC50 [3] [µM]	IC50 [4] [µM]	IC50 [5] [µM]	SMILES
0.282	> 10				N#Cc1ccc(O[C@@H]2c3ccccc3C[C@H]2N2CCC[C@@H](N)C2)c(Cl)c1
		6.4	11.3	> 20	Clc1ccc(Cn2c(CN3CCCC3)nc3ccccc32)cc1 [CLEMIZOLE]
